PMC4048129 (Chemistry and physics of lipids, 2013)
In brackets after ≈: the same amount, converted by molar mass. Where two headings read alike, the source gives them in different places.

How the values were obtained:
B. cereus (ATCC 10876) = assay: Microdilution susceptibility testing; conditions: for IC50: ATCC10876, read-out: IC50 ± SEM
[1] = test system: K. pneumoniae (ATCC 13883); assay: Microdilution susceptibility testing; conditions: for IC50: ATCC13883, read-out: IC50 ± SEM
[2] = test system: Gram-positive and Gram-negative bacteria; assay: Antibacterial activity against the bacteria of Table 1; conditions: for antibacterial activity: all bacteria presented in Table 1, result in words
E. coli (ATCC 25922) = assay: Microdilution susceptibility testing
[3] = test system: S. saprophyticus (ATCC 15305); assay: Microdilution susceptibility testing; conditions: for IC50: ATCC15305, read-out: IC50 ± SEM
S. aureus (ATCC 29213) = assay: Microdilution susceptibility testing; conditions: for IC50: ATCC29213, read-out: IC50 ± SEM
[4] = test system: P. aeruginosa (ATCC 27853); assay: Microdilution susceptibility testing; conditions: for IC50: ATCC27853, read-out: IC50 ± SEM
CIMRSA 2 = assay: Microdilution susceptibility testing; conditions: for IC50: read-out: IC50 ± SEM
CIMRSA 1 [5] = assay: Determination of bactericidal concentration; type: cell-based, Clinical isolate of methicillin-resistant S. aureus; conditions: CIMRSA 1 and 2 (both strains, text summary)
CIMRSA 1 [6] = assay: Microdilution susceptibility testing; conditions: for IC50: read-out: IC50 ± SEM
[7] = test system: Mycobacterium tuberculosis; conditions: ref Carballeira et al., 2006; cited from earlier work
MRSA ATCC 43300 = assay: Microdilution susceptibility testing; conditions: for IC50: read-out: IC50 ± SEM
[8] = Cytotoxicity testing, MTT assay; type: cell-based; conditions: human
[9] = test system: Peripheral blood mononuclear cells (PBMC); assay: Cytotoxicity testing, MTT assay; type: cell-based
[10] = target: L. donovani DNA topoisomerase IB enzyme (LdTopIB); conditions: ref Carballeira et al., 2012; cited from earlier work
[11] = test system: Leishmania donovani amastigotes; conditions: cited from earlier work
[12] = test system: Neisseria gonorrhoeae, Neisseria meningitidis, and Bacteroides fragilis; conditions: N. gonorrhoeae, B. fragilis, ref Konthikamee et al., 1982; cited from earlier work
[13] = B. cereus ATCC 10876, 37°C, 18-24 h
[14] = K. pneumoniae ATCC 13883, 37°C, 18-24 h
[15] = E. coli ATCC 25922, 37°C, 18-24 h
[16] = S. saprophyticus ATCC 15305, 37°C, 18-24 h
[17] = S. aureus ATCC 29213, 37°C, 18-24 h
[18] = P. aeruginosa ATCC 27853, 37°C, 18-24 h
[19] = Klebsiella pneumoniae, ATCC13883
[20] = Staphylococcus aureus, ATCC43300|MRSA
[21] = peripheral blood mononuclear cells (PBMC)
[22] = Staphylococcus saprophyticus, ATCC15305, S. saprophyticus ATCC 15305, 37°C, 18-24 h
[23] = Staphylococcus aureus, ATCC29213
[24] = Pseudomonas aeruginosa, ATCC27853

| Structure (SMILES) | antibacterial activity [2] | MIC (CIMRSA 2; Staphylococcus aureus) [mg/L] | IC50 (CIMRSA 2; Staphylococcus aureus) [mg/L] | bactericidal concentration (CIMRSA 1 [5]) [µg/mL] | MIC (B. cereus (ATCC 10876); Bacillus cereus, ATCC10876) [mg/L] | IC50 (B. cereus (ATCC 10876); Bacillus cereus) [mg/L] | MIC (CIMRSA 1 [6]; Staphylococcus aureus) [mg/L] | IC50 (CIMRSA 1 [6]; Staphylococcus aureus) [mg/L] | MIC [1, 19] [mg/L] | IC50 ([1]; Klebsiella pneumoniae) [mg/L] | MIC (MRSA ATCC 43300; [20]) [mg/L] | IC50 (MRSA ATCC 43300; [20]) [mg/L] | MIC (E. coli (ATCC 25922); Escherichia coli, ATCC25922) [mg/L] | MIC [3, 22] [mg/L] | IC50 ([3]; Staphylococcus saprophyticus) [mg/L] | MIC (S. aureus (ATCC 29213); [23]) [mg/L] | IC50 (S. aureus (ATCC 29213); Staphylococcus aureus) [mg/L] | MIC [4, 24] [mg/L] | further results |
| --- | --- | --- | --- | --- | --- | --- | --- | --- | --- | --- | --- | --- | --- | --- | --- | --- | --- | --- | --- |
| CCCCCCCCCCCCCCCCCC#CC(=O)O [Compound 2-ICA, 2-icosanoic acid] | did not show antibacterial activity |  |  |  |  |  |  |  |  |  |  |  |  |  |  |  |  |  | MIC (B. cereus (ATCC 10876); [13]): >1,000 μg/mL; MIC [1, 14]: >1,000 μg/mL; MIC (E. coli (ATCC 25922); [15]): >1,000 μg/mL; MIC [3, 16]: >1,000 μg/mL; MIC (S. aureus (ATCC 29213); [17]): >1,000 μg/mL; MIC [4, 18]: >1,000 μg/mL |
| CCCCCCCCCC#CCCC#CC(=O)O [2,6-HDA, 2,6-hexadecadiynoic acid] |  | 62.5 (≈ 252 µM) | 22.4 (≈ 90.2 µM) | 125 to 500 | 62.5 (≈ 252 µM) | 46.1 (≈ 186 µM) | 62.5 (≈ 252 µM) | 39.5 (≈ 159 µM) | 62.5 (≈ 252 µM) | 31.2 (≈ 126 µM) | 62.5 (≈ 252 µM) | 22.3 (≈ 89.8 µM) | > 1000 | 62.5 (≈ 252 µM) | 21.5 (≈ 86.6 µM) | 31.3 (≈ 126 µM) | 14.1 (≈ 56.8 µM) | 250 (≈ 1010 µM) | minimum inhibitory concentrations (MICs) [7]: 141 to 145 µM; IC50 at 3 days [8, 21]: 63.4 ± 0.3 mg/L (≈ 255 µM); IC50 ([4]; Pseudomonas aeruginosa): 132 mg/L (≈ 533 µM) |
| CCCCCCC#CCCCCCC#CC(=O)O [2,9-HDA] |  |  |  | 125 to 500 |  |  |  |  |  |  |  |  |  |  |  |  |  |  | IC50 ± SEM (CIMRSA 2; CIMRSA 2): 76.0 ± 2.4 mg/L (≈ 306 µM); MIC (CIMRSA 2; CIMRSA 2): 250 mg/L (≈ 1010 µM); IC50 ± SEM (B. cereus (ATCC 10876); [13]): 34.2 ± 0.3 mg/L (≈ 138 µM); MIC (B. cereus (ATCC 10876); [13]): 62.5 mg/L (≈ 252 µM); IC50 ± SEM (CIMRSA 1 [6]; CIMRSA 1): 102.1 ± 2.4 mg/L (≈ 411 µM); MIC (CIMRSA 1 [6]; CIMRSA 1): 250 mg/L (≈ 1010 µM); IC50 ± SEM [1, 14]: 135.4 ± 0.7 mg/L (≈ 545 µM); MIC [1, 14]: 250 mg/L (≈ 1010 µM); IC50 ± SEM (MRSA ATCC 43300; MRSA ATCC 43300): 203.5 ± 2.6 mg/L (≈ 819 µM); MIC (MRSA ATCC 43300; MRSA ATCC 43300): 500 mg/L (≈ 2010 µM); PBMC cytotoxicity, IC50 ± SEM [9]: 93.3 ± 0.4 mg/L; MIC (E. coli (ATCC 25922); [15]): >1,000 μg/mL; IC50 ± SEM [3, 16]: 61.5 ± 1.2 mg/L (≈ 248 µM); MIC [3, 16]: 125 mg/L (≈ 503 µM); IC50 ± SEM (S. aureus (ATCC 29213); [17]): 94.0 ± 0.9 mg/L (≈ 378 µM); MIC (S. aureus (ATCC 29213); [17]): 250 mg/L (≈ 1010 µM); MIC [4, 18]: >1,000 μg/mL |
| O=C(O)c1cn(C2CC2)c2cc(N3CCNCC3)c(F)cc2c1=O [Ciprofloxacin, reference compound] |  |  |  |  | 0.05 (≈ 0.151 µM) | 0.03 (≈ 0.0905 µM) |  |  | 0.24 (≈ 0.724 µM) | 0.13 (≈ 0.392 µM) | 0.5 (≈ 1.51 µM) | 0.2 (≈ 0.604 µM) | < 0.008 | < 0.002 |  | 0.25 (≈ 0.754 µM) | 0.14 (≈ 0.423 µM) | 0.24 (≈ 0.724 µM) | IC50 at 3 days [8]: 66.4 ± 0.6 mg/L (≈ 200 µM); IC50 ([4]; Pseudomonas aeruginosa): 0.11 mg/L (≈ 0.332 µM) |
| CCCCCCCCCCCCCCCC#CC(=O)O [Compound 2-ODA, 2-Octadecynoic acid] |  | 7.8 (≈ 27.8 µM) | 5.5 (≈ 19.6 µM) | 15.6 | 15.6 (≈ 55.6 µM) | 11.9 (≈ 42.4 µM) | 7.8 (≈ 27.8 µM) | 4.3 (≈ 15.3 µM) | 7.8 (≈ 27.8 µM) | 5.6 (≈ 20 µM) | 7.8 (≈ 27.8 µM) | 5.5 (≈ 19.6 µM) | > 1000 | 125 (≈ 446 µM) | 68.8 (≈ 245 µM) | 15.6 (≈ 55.6 µM) | 8.1 (≈ 28.9 µM) | > 1000 | IC50 [10]: 5.3 µM; IC50 ([11]; L. donovani, ref Carballeira et al., 2012): 11 µM; IC50 at 3 days [8, 21]: 58.9 ± 0.1 mg/L (≈ 210 µM) |
| CCCCCCCCCCCCCC#CC(=O)O [Compound 2-HDA, 2-hexadecynoic acid] |  | 3.9 (≈ 15.5 µM) | 3.4 (≈ 13.5 µM) | 7.8 | 31.3 (≈ 124 µM) | 17.2 (≈ 68.1 µM) | 3.9 (≈ 15.5 µM) | 3.3 (≈ 13.1 µM) | 7.8 (≈ 30.9 µM) | 6.1 (≈ 24.2 µM) | 15.6 (≈ 61.8 µM) | 9.4 (≈ 37.2 µM) | > 1000 | 15.5 (≈ 61.4 µM) | 8.8 (≈ 34.9 µM) | 15.6 (≈ 61.8 µM) | 6.2 (≈ 24.6 µM) | 125 (≈ 495 µM) | MIC (CIMRSA 1 [6]; Staphylococcus aureus, MRSA): 3.9 mg/L (≈ 15.5 µM); minimum inhibitory concentrations (MICs) [7]: 141 to 145 µM; IC50 [10]: 28.7 µM; IC50 ([11]; L. donovani amastigotes, ref Tasdemir et al., 2010): 17.8 µM; MIC ([2]; read-out: MICs): 7.8 to 125 mg/L (≈ 30.9 to 495 µM); IC50 at 3 days [8, 21]: 57.2 ± 0.1 mg/L (≈ 227 µM); active concentrations [12]: 5.0 to 21.4 µM; MIC [3, 16]: 15.6 mg/L (≈ 61.8 µM); IC50 ([4]; Pseudomonas aeruginosa): 87.8 mg/L (≈ 348 µM) |
| CCCCCCCCCCCCCCCC#CCO [Compound 2-ODOH, 2-Octadecyn-1-ol] |  |  |  |  | > 1000 |  |  |  | > 1000 |  |  |  | > 1000 | > 1000 |  | > 1000 |  | > 1000 |  |
| COc1cccc(OC)c1C(=O)N[C@@H]1C(=O)N2[C@@H]1SC(C)(C)[C@@H]2C(=O)O [Methicillin, reference compound] |  | 31.3 (≈ 82.3 µM) | 11.8 (≈ 31 µM) |  | 62.5 (≈ 164 µM) | 38.2 (≈ 100 µM) | 7.8 (≈ 20.5 µM) | 2.2 (≈ 5.78 µM) | 0.98 (≈ 2.58 µM) | 0.36 (≈ 0.946 µM) | 1.95 (≈ 5.13 µM) | 0.98 (≈ 2.58 µM) | > 1000 | 0.12 (≈ 0.315 µM) | 0.06 (≈ 0.158 µM) | 0.06 (≈ 0.158 µM) | 0.03 (≈ 0.0789 µM) | > 1000 | IC50 at 3 days [8]: 86.1 ± 0.5 mg/L (≈ 226 µM) |
| CCCCCCCCCCCCCC#CCO [Compound 2-HDOH, 2-Hexadecyn-1-ol] | not active |  |  |  | > 1000 |  |  |  | > 1000 |  |  |  | > 1000 | > 1000 |  | > 1000 |  | > 1000 |  |
| CCCCCCCCCCCCCC#CCOC1CCCCO1 (stereo not shown) [Compound 2-HDOTHP, 2-(2-Hexadecynyloxy)-tetrahydro-2H-pyran] | inactive |  |  |  | > 1000 |  |  |  | > 1000 |  |  |  | > 1000 | > 1000 |  | > 1000 |  | > 1000 |  |
| CCCCCCCCCCCCCCCC#CCOC1CCCCO1 (stereo not shown) [Compound 2-ODOTHP, 2-(2-Octadecynyloxy)-tetrahydro-2H-pyran] | inactive |  |  |  | > 1000 |  |  |  | > 1000 |  |  |  | > 1000 | > 1000 |  | > 1000 |  | > 1000 |  |
